Laboratory results published in PubChem BioAssay (NCI).
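Dose response: 5 concentrations. Exposure: 48 h. Format: 96-well plates. Endpoint: linear interpolation; highest concentration if not reached. Definition used: TGI = concentration required for complete inhibition of growth.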

Experiments:
Assay in all cases: DTP human tumour cell line panel, 48 h
[1] = system: 786-0 renal
[2] = system: A498 renal
[3] = system: A549 NSCLC
[4] = system: ACHN renal
[5] = system: BT-549 breast
[6] = system: CAKI-1 renal
[7] = system: COLO 205 colon
[8] = system: DU-145 prostate
[9] = system: EKVX NSCLC
[10] = system: HCT-116 colon
[11] = system: HCT-15 colon
[12] = system: HL-60(TB) leukemia
[13] = system: HOP-62 NSCLC
[14] = system: HOP-92 NSCLC
[15] = system: HS 578T breast
[16] = system: HT29 colon
[17] = system: IGROV1 ovarian
[18] = system: K-562 leukemia
[19] = system: KM12 colon
[20] = system: LOX IMVI melanoma
[21] = system: M14 melanoma
[22] = system: MALME-3M melanoma
[23] = system: MCF7 breast
[24] = system: MDA-MB-231 breast
[25] = system: MDA-MB-435
[26] = system: MDA-N
[27] = system: MOLT-4 leukemia
[28] = system: NCI-H226 lung
[29] = system: NCI-H23 lung
[30] = system: NCI-H460 lung
[31] = system: NCI-H522 lung
[32] = system: OVCAR-3 ovarian
[33] = system: OVCAR-4 ovarian
[34] = system: OVCAR-5 ovarian
[35] = system: OVCAR-8 ovarian
[36] = system: PC-3 prostate
[37] = system: RPMI-8226 leukemia
[38] = system: RXF 393 renal
[39] = system: SF-268 CNS
[40] = system: SF-295 CNS
[41] = system: SF-539 CNS
[42] = system: SK-MEL-28 melanoma
[43] = system: SK-MEL-5 melanoma
[44] = system: SK-OV-3 ovarian
[45] = system: SN12C renal
[46] = system: SNB-19 CNS
[47] = system: SNB-75 CNS
[48] = system: SR leukemia
[49] = system: SW-620 colon
[50] = system: T-47D breast
[51] = system: TK-10 renal
[52] = system: U251 CNS
[53] = system: UACC-62 melanoma
[54] = system: UO-31 renal
[55] = system: CCRF-CEM leukemia
[56] = system: SK-MEL-2 melanoma
[57] = system: UACC-257 melanoma
[58] = system: HCC-2998 colon

Measured: TGI

CC(NC(=O)C(Cc1ccc(OC(=O)c2ccccc2)cc1)NC(=O)OC(C)(C)C)C(=O)NCC(=O)NC(Cc1ccccc1)NC(=O)OCc1ccccc1 (centres undefined)
> 100 µM: [1] | [2] | [3] | [4] | [5] | [6] | [7] | [8] | [9] | [10] | [11] | [12] | [13] | [14] | [15] | [16] | [17] | [18] | [19] | [20] | [21] | [22] | [23] | [24] | [25] | [26] | [27] | [28] | [29] | [30] | [31] | [32] | [33] | [34] | [35] | [36] | [37] | [38] | [39] | [40] | [41] | [42] | [43] | [44] | [45] | [46] | [47] | [48] | [49] | [50] | [51] | [52] | [53] | [54]

C=C1C[C@@H](O)[C@@H](Br)C(C)(C)[C@@]12C=CC(O)(CBr)CC2 (some centres undefined)
15.1 µM: [19]
61 µM: [14]
79.2 µM: [9]
93.5 µM: [24]
76.2 µM: [27]
> 100 µM: [1] | [3] | [4] | [6] | [8] | [10] | [11] | [12] | [13] | [15] | [16] | [17] | [18] | [20] | [21] | [22] | [23] | [25] | [26] | [28] | [29] | [30] | [31] | [32] | [33] | [34] | [35] | [38] | [39] | [40] | [56] | [42] | [43] | [45] | [46] | [49] | [50] | [51] | [52] | [57] | [53] | [54]
64.2 µM: [55]
77.6 µM: [48]
83.7 µM: [5]
9.72 µM: [36]
70.7 µM: [37]

CC1CC2=C(C1)C(C1(C)C(=O)CC3C(C1=O)C3(C)C)C(C)C2=O (centres undefined)
> 100 µM: [1] | [2] | [3] | [4] | [5] | [6] | [55] | [7] | [8] | [9] | [58] | [10] | [11] | [12] | [13] | [14] | [15] | [16] | [17] | [18] | [19] | [20] | [21] | [22] | [23] | [24] | [25] | [26] | [27] | [28] | [29] | [30] | [31] | [32] | [33] | [34] | [35] | [36] | [37] | [38] | [39] | [40] | [41] | [56] | [42] | [43] | [44] | [45] | [46] | [47] | [48] | [49] | [50] | [51] | [52] | [57] | [53] | [54]
